Our source for the Latency values is ChEMBL document CHEMBL1135700, “Design, synthesis and activity of ascorbic acid prodrugs of nipecotic, kynurenic and diclophenamic acids, liable to increase neurotropic activity” (2002).

The assay concerns Mus musculus. The assay can be described thus: Compound administered at a concentration of 0.75 mmol/kg intraperitoneally was evaluated for its effect on pentylenetetrazole induced convulsions in mice, measured as latency to convulsion.

In turn, `C1CCc2nnnn2CC1.O=C1O[C@H]([C@@H](O)COC(=O)C2CCCNC2)C(O)=C1O` (stereo partly specified) had a Latency of 922 s.
